# Experimental data reported in patent US12539287B2, “L-DOPA microbiome therapy” (Iowa State University Research Foundation, Inc., priority 2018, dated 2026).
# Columns and labels:
# [1] = cited from earlier work
# [2] = humans; cited from earlier work
# [3] = Bz 50 mg/kg 3 times/day
# Experimental: Mice were orally administered a single daily dose of 10^9 CFU EcN^2L-DOPA or PBS and also Bz (50 mg/kg) 3 times/day for 1 and 2 days. Plasma samples collected through submandibular sampling prior to EcN^2L-DOPA treatment (serving as baseline), and at 4, 8, 16, 24 and 48 h post-EcN^2L-DOPA and Bz (50 mg/kg) treatment, were assayed for L-DOPA production by HPLC. […] We increased the dose and frequency of Bz because of its short half-life.
SMILES,solubility in water [1],optimal therapeutic plasma levels [2] [ng/mL],duration of Bz plasma levels [3]
"N[C@@H](Cc1ccc(O)c(O)c1)C(=O)O [L-DOPA, (−)-L-a-amino-b-(3,4-dihydroxybenzene)propanoic acid]",slightly soluble in water,300 to 1600,
"NC(CO)C(=O)NNCc1ccc(O)c(O)c1O (stereo not drawn) [Bz, benserazide]",,,up to 30 h
